This passage reports Ratio IC50 and half-life results from ChEMBL document CHEMBL4418261, “Pyripyropene derivatives having acat2 inhibiting activity and stable to metabolizing enzymes” (2017).

SMILES strings stand for the structures.

The target in series [1] is T1, Sterol O-acyltransferase 2 (Mus musculus) (UniProt O88908).
T1 sequence (whole entry): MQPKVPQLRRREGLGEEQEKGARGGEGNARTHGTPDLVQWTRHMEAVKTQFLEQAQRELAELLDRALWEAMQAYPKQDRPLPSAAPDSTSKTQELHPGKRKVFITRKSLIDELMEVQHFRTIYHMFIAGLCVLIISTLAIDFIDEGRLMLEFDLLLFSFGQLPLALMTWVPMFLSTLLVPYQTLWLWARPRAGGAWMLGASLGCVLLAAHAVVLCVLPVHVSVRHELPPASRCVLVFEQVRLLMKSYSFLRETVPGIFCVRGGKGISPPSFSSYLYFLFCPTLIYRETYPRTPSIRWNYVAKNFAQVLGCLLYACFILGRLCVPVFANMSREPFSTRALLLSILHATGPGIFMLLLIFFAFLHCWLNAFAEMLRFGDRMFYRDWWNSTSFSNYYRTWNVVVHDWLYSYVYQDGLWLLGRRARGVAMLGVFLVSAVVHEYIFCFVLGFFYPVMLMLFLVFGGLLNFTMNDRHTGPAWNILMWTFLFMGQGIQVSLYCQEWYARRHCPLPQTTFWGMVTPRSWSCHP
The series can be described thus: Potency index, ratio of PRD-043 IC50 to test compound IC50 for inhibition ACAT2 in mouse hepatic microsome membranes using [1-14C]oleoyl coenzyme A as substrate incubated for 5 mins. Format: microsomes.

Series [2] is described as follows: Half life in Sprague-Dawley rat hepatic microsomes at 6 ug/ml by LC-MS method. The note with it: liver microsomes. The class given is ADME, Microsome. (Liver microsomes are vesicles of endoplasmic reticulum, rich in cytochrome P450 enzymes.)

Usually half-life stands for the time in which the quantity being followed falls by half. Read a low half-life as fast loss. Regarding `COc1ccccc1[C@@H]1OC[C@@]2(C)[C@@H]3C[C@H](OC(=O)c4ccc(C#N)cc4)[C@@]4(C)Oc5cc(-c6cccnc6)oc(=O)c5[C@H](O)[C@@H]4[C@@]3(C)CC[C@@H]2O1`, the Ratio IC50 in series [1] is 10 to 20. This compound also showed a half-life at 6 ug/ml in series [2] above 9 h.
With `CC(=O)O[C@H]1C[C@H]2[C@](C)(COC(=O)C(C)C)[C@@H](OC(=O)C(C)C)CC[C@]2(C)[C@H]2[C@@H](O)c3c(cc(-c4cccnc4)oc3=O)O[C@]12C`, the Ratio IC50 in series [1] was 10 to 20. The half-life at 6 ug/ml in series [2] is above 9 h.
With `CC(=O)OC[C@@]1(C)[C@@H]2C[C@H](OC(=O)c3cccc(Br)c3)[C@@]3(C)Oc4cc(-c5cccnc5)oc(=O)c4[C@H](O)[C@@H]3[C@@]2(C)CC[C@@H]1OC(C)=O`, the half-life at 6 ug/ml in series [2] was below 1 h.
`CC(=O)OC[C@@]1(C)[C@@H]2C[C@H](OC(=O)c3ccccc3C)[C@@]3(C)Oc4cc(-c5cccnc5)oc(=O)c4[C@H](O)[C@@H]3[C@@]2(C)CC[C@@H]1OC(C)=O` showed a half-life at 6 ug/ml in series [2] below 1 h.
Regarding `C[C@]1(COC(=O)c2ccccc2)[C@@H]2C[C@H](OC(=O)c3ccc(C#N)cc3)[C@@]3(C)Oc4cc(-c5cccnc5)oc(=O)c4[C@H](O)[C@@H]3[C@@]2(C)CC[C@@H]1OC(=O)c1ccccc1`, in series [1], the Ratio IC50 lay in the range of 10 to 20. The half-life at 6 ug/ml in series [2] was above 9 h.
For `C[C@@]12CO[C@@H](c3ccccc3F)O[C@H]1CC[C@@]1(C)[C@H]2C[C@H](OC(=O)c2ccc(C#N)cc2)[C@@]2(C)Oc3cc(-c4cccnc4)oc(=O)c3[C@H](O)[C@H]12` the same measures were 10 to 20 and above 9 h.
With `CC(=O)OC[C@@]1(C)[C@@H]2C[C@H](OC(=O)c3ccc(C#N)cc3)[C@@]3(C)Oc4cc(-c5cccnc5)oc(=O)c4[C@H](O)[C@@H]3[C@@]2(C)CC[C@@H]1OC(=O)c1ccccc1`, the Ratio IC50 in series [1] is 10 to 20. The same compound registered a half-life at 6 ug/ml in series [2] above 9 h.
In turn, `CC(=O)OC[C@@]1(C)[C@@H]2C[C@H](OC(=O)C3CCCCC3)[C@@]3(C)Oc4cc(-c5cccnc5)oc(=O)c4[C@H](O)[C@@H]3[C@@]2(C)CC[C@@H]1OC(C)=O` displayed a half-life at 6 ug/ml in series [2] below 1 h.
On to `CC(=O)OC[C@@]1(C)[C@@H]2C[C@H](OC(C)=O)[C@@]3(C)Oc4cc(-c5cccnc5)oc(=O)c4[C@H](O)[C@@H]3[C@@]2(C)CC[C@@H]1OC(C)=O`, for which the half-life at 6 ug/ml in series [2] is below 1 h.
`CC(=O)OC[C@@]1(C)[C@@H]2C[C@H](OC(=O)c3ccc(C)cc3)[C@@]3(C)Oc4cc(-c5cccnc5)oc(=O)c4[C@H](O)[C@@H]3[C@@]2(C)CC[C@@H]1OC(C)=O` yielded a half-life at 6 ug/ml in series [2] below 1 h.
Turning to `C[C@@]12CO[C@@H](c3ccccc3)O[C@H]1CC[C@@]1(C)[C@H]2C[C@H](OC(=O)C2CCCCC2)[C@@]2(C)Oc3cc(-c4cccnc4)oc(=O)c3[C@H](O)[C@H]12`, the Ratio IC50 in series [1] was in the range of 10 to 20. Further, the half-life at 6 ug/ml in series [2] was above 9 h.
Consider `CC(C)C(=O)OC[C@@]1(C)[C@@H]2C[C@H](OC(=O)c3ccc([N+](=O)[O-])cc3)[C@@]3(C)Oc4cc(-c5cccnc5)oc(=O)c4[C@H](O)[C@@H]3[C@@]2(C)CC[C@@H]1OC(=O)C(C)C`, for which the Ratio IC50 in series [1] was 10 to 20. Moreover, the half-life at 6 ug/ml in series [2] was above 9 h.
For `Cc1ccc([C@@H]2OC[C@@]3(C)[C@@H]4C[C@H](OC(=O)c5ccc(F)cc5)[C@@]5(C)Oc6cc(-c7cccnc7)oc(=O)c6[C@H](O)[C@@H]5[C@@]4(C)CC[C@@H]3O2)c(C)c1` the same measures were 10 to 20 and above 9 h.
For `C[C@@]12CO[C@@H](c3ccccc3F)O[C@H]1CC[C@@]1(C)[C@H]2C[C@H](OC(=O)c2ccc(F)cc2)[C@@]2(C)Oc3cc(-c4cccnc4)oc(=O)c3[C@H](O)[C@H]12` the same measures were 10 to 20 and above 9 h.
In the case of `Cc1ccccc1[C@@H]1OC[C@@]2(C)[C@@H]3C[C@H](OC(=O)c4ccc(F)cc4)[C@@]4(C)Oc5cc(-c6cccnc6)oc(=O)c5[C@H](O)[C@@H]4[C@@]3(C)CC[C@@H]2O1`, the Ratio IC50 in series [1] lay in the range of 10 to 20. The compound also displayed a half-life at 6 ug/ml in series [2] above 9 h.
For `CN(C)c1ccc([C@@H]2OC[C@@]3(C)[C@@H]4C[C@H](OC(=O)c5ccc(C#N)cc5)[C@@]5(C)Oc6cc(-c7cccnc7)oc(=O)c6[C@H](O)[C@@H]5[C@@]4(C)CC[C@@H]3O2)cc1` the same measures were below 20 and above 9 h.
`COc1cccc(C(=O)O[C@H]2C[C@H]3[C@](C)(COC(C)=O)[C@@H](OC(C)=O)CC[C@]3(C)[C@H]3[C@@H](O)c4c(cc(-c5cccnc5)oc4=O)O[C@]23C)c1`: the Ratio IC50 in series [1] is 1. Moreover, in series [2], the half-life at 6 ug/ml was above 9 h.
The matching figures for `COc1ccc(C(OC)O[C@H]2C[C@H]3[C@]4(C)CO[C@@H](c5ccccc5)O[C@H]4CC[C@]3(C)[C@H]3[C@@H](O)c4c(cc(-c5cccnc5)oc4=O)O[C@]23C)cc1` (stereo partly specified): 10 to 20 and above 9 h.
As to `Cc1ccc([C@@H]2OC[C@@]3(C)[C@@H]4C[C@H](OC(=O)c5ccc(F)cc5)[C@@]5(C)Oc6cc(-c7cccnc7)oc(=O)c6[C@H](O)[C@@H]5[C@@]4(C)CC[C@@H]3O2)cc1`, in series [1], the Ratio IC50 is below 20. The half-life at 6 ug/ml in series [2] was above 9 h.
On to `CC(=O)O[C@H]1CC[C@@]2(C)[C@@H](C[C@H](OC(=O)c3ccc(C#N)cc3)[C@@]3(C)Oc4cc(-c5cccnc5)oc(=O)c4[C@H](O)[C@H]23)[C@]1(C)COC(=O)C(C)C`, for which the Ratio IC50 in series [1] lay within 10 to 20. Moreover, in series [2], the half-life at 6 ug/ml was above 9 h.
Regarding `Cc1cccc([C@@H]2OC[C@@]3(C)[C@@H]4C[C@H](OC(=O)c5ccc(F)cc5)[C@@]5(C)Oc6cc(-c7cccnc7)oc(=O)c6[C@H](O)[C@@H]5[C@@]4(C)CC[C@@H]3O2)c1`, in series [1], the Ratio IC50 was in the range of 10 to 20. Besides, the half-life at 6 ug/ml in series [2] was above 9 h.
On to `CC(=O)O[C@H]1CC[C@@]2(C)[C@@H](C[C@H](OC(C)=O)[C@@]3(C)Oc4cc(-c5cccnc5)oc(=O)c4[C@H](O)[C@H]23)[C@]1(C)COC(=O)c1ccccc1`, for which the Ratio IC50 in series [1] fell in the range of 10 to 20. In series [2], this compound returned a half-life at 6 ug/ml above 9 h.
As for `CC(=O)O[C@H]1CC[C@@]2(C)[C@@H](C[C@H](OC(=O)c3ccc(C#N)cc3)[C@@]3(C)Oc4cc(-c5cccnc5)oc(=O)c4[C@H](O)[C@H]23)[C@]1(C)COC(=O)c1ccccc1`, the Ratio IC50 in series [1] was in the range of 10 to 20. Also, the half-life at 6 ug/ml in series [2] was above 9 h.
As for `C[C@@]12CO[C@@H](c3ccccc3)O[C@H]1CC[C@@]1(C)[C@H]2C[C@H](OC(=O)c2ccccc2)[C@@]2(C)Oc3cc(-c4cccnc4)oc(=O)c3[C@H](O)[C@H]12`, the Ratio IC50 in series [1] was 10 to 20. The same compound came in with a half-life at 6 ug/ml in series [2] above 9 h.
For `CC(C)C(=O)OC[C@@]1(C)[C@@H]2C[C@H](OC(=O)C3CCCCC3)[C@@]3(C)Oc4cc(-c5cccnc5)oc(=O)c4[C@H](O)[C@@H]3[C@@]2(C)CC[C@@H]1OC(=O)C(C)C`, the Ratio IC50 in series [1] fell in the range of 10 to 20. Besides, the half-life at 6 ug/ml in series [2] was above 9 h.
As for `Cc1cccc([C@@H]2OC[C@@]3(C)[C@@H]4C[C@H](OC(=O)c5ccc(C#N)cc5)[C@@]5(C)Oc6cc(-c7cccnc7)oc(=O)c6[C@H](O)[C@@H]5[C@@]4(C)CC[C@@H]3O2)c1`, the Ratio IC50 in series [1] is below 20. Moreover, the half-life at 6 ug/ml in series [2] was above 9 h.
With `CC(=O)O[C@H]1C[C@H]2[C@]3(C)CO[C@@H](c4ccccc4)O[C@H]3CC[C@]2(C)[C@H]2[C@@H](O)c3c(cc(-c4cccnc4)oc3=O)O[C@]12C`, in series [1], the Ratio IC50 was in the range of 10 to 20. Moreover, in series [2], the half-life at 6 ug/ml is above 9 h.
Regarding `CCCCCC(=O)OC[C@@]1(C)[C@@H]2C[C@H](OC(=O)c3ccc(C#N)cc3)[C@@]3(C)Oc4cc(-c5cccnc5)oc(=O)c4[C@H](O)[C@@H]3[C@@]2(C)CC[C@@H]1OC(=O)CCCCC`, the Ratio IC50 in series [1] was in the range of 10 to 20. The half-life at 6 ug/ml in series [2] is above 9 h.
`CC(C)C(=O)OC[C@@]1(C)[C@@H]2C[C@H](OC(=O)c3ccc(C#N)cc3)[C@@]3(C)Oc4cc(-c5cccnc5)oc(=O)c4[C@H](O)[C@@H]3[C@@]2(C)CC[C@@H]1OC(=O)C(C)C`: the Ratio IC50 in series [1] lay within 0.1 to 1. This compound also had a half-life at 6 ug/ml in series [2] above 9 h.
Turning to `Cc1ccc([C@@H]2OC[C@@]3(C)[C@@H]4C[C@H](OC(=O)c5ccc(C#N)cc5)[C@@]5(C)Oc6cc(-c7cccnc7)oc(=O)c6[C@H](O)[C@@H]5[C@@]4(C)CC[C@@H]3O2)c(C)c1`, the Ratio IC50 in series [1] was 10 to 20. In series [2], this compound had a half-life at 6 ug/ml above 9 h.
Compound `CC(=O)OC[C@@]1(C)[C@@H]2C[C@H](OC(=O)c3ccccc3F)[C@@]3(C)Oc4cc(-c5cccnc5)oc(=O)c4[C@H](O)[C@@H]3[C@@]2(C)CC[C@@H]1OC(C)=O` returned a half-life at 6 ug/ml in series [2] below 1 h.
For the compound `C[C@@]12CO[C@@H](c3cccc4ccccc34)O[C@H]1CC[C@@]1(C)[C@H]2C[C@H](OC(=O)c2ccc(C#N)cc2)[C@@]2(C)Oc3cc(-c4cccnc4)oc(=O)c3[C@H](O)[C@H]12`, the Ratio IC50 in series [1] lay within 10 to 20. Also, in series [2], the half-life at 6 ug/ml was above 9 h.
Take `Cc1ccc([C@@H]2OC[C@@]3(C)[C@@H]4C[C@H](OC(=O)c5ccc(C#N)cc5)[C@@]5(C)Oc6cc(-c7cccnc7)oc(=O)c6[C@H](O)[C@@H]5[C@@]4(C)CC[C@@H]3O2)cc1`: the Ratio IC50 in series [1] fell in the range of 10 to 20. In addition, the half-life at 6 ug/ml in series [2] was above 9 h.
For the compound `CCc1ccc(C(=O)O[C@H]2C[C@H]3[C@](C)(COC(C)=O)[C@@H](OC(C)=O)CC[C@]3(C)[C@H]3[C@@H](O)c4c(cc(-c5cccnc5)oc4=O)O[C@]23C)cc1`, the half-life at 6 ug/ml in series [2] was below 1 h.
